Test results reported in the supplement of paper PMC11451515.

Test system: SEM cells
Test: cell viability relative to DMSO control; higher = less cytotoxic
Settings: 48 h
Outline: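 Viability values are per-plate percentages of DMSO wells, with background from cell-free wells. Library compounds in DMSO were pin-dosed, in an 11-point threefold series from 47 μM to 0.79 nM, onto NOMO1 or SEM (500 cells/well) or P12-Ichikawa (1000 cells/well) leukemia cells in 1536-well plates (5 μl). Those cells had been adapted for at least four passages in each medium, and CellTiter-Glo One luminescence was read after 48 h at 37°C.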

[1] = HPLM + 10% dialyzed FBS, 0.000781 µM
[2] = HPLM + 10% dialyzed FBS, 0.00234 µM
[3] = HPLM + 10% dialyzed FBS, 0.00702 µM
[4] = HPLM + 10% dialyzed FBS, 0.0211 µM
[5] = HPLM + 10% dialyzed FBS, 0.0632 µM
[6] = HPLM + 10% dialyzed FBS, 0.19 µM
[7] = HPLM + 10% dialyzed FBS, 0.569 µM
[8] = HPLM + 10% dialyzed FBS, 1.71 µM
[9] = HPLM + 10% dialyzed FBS, 5.12 µM
[10] = HPLM + 10% dialyzed FBS, 15.4 µM
[11] = HPLM + 10% dialyzed FBS, 46.1 µM
[12] = RPMI 5 mM glucose + 10% FBS, 0.000781 µM
[13] = RPMI 5 mM glucose + 10% FBS, 0.00234 µM
[14] = RPMI 5 mM glucose + 10% FBS, 0.00702 µM
[15] = RPMI 5 mM glucose + 10% FBS, 0.0211 µM
[16] = RPMI 5 mM glucose + 10% FBS, 0.0632 µM
[17] = RPMI 5 mM glucose + 10% FBS, 0.19 µM
[18] = RPMI 5 mM glucose + 10% FBS, 0.569 µM
[19] = RPMI 5 mM glucose + 10% FBS, 1.71 µM
[20] = RPMI 5 mM glucose + 10% FBS, 5.12 µM
[21] = RPMI 5 mM glucose + 10% FBS, 15.4 µM
[22] = RPMI 5 mM glucose + 10% FBS, 46.1 µM
[23] = RPMI 5 mM glucose + 10% dialyzed FBS, 0.000781 µM
[24] = RPMI 5 mM glucose + 10% dialyzed FBS, 0.00234 µM
[25] = RPMI 5 mM glucose + 10% dialyzed FBS, 0.00702 µM
[26] = RPMI 5 mM glucose + 10% dialyzed FBS, 0.0211 µM
[27] = RPMI 5 mM glucose + 10% dialyzed FBS, 0.0632 µM
[28] = RPMI 5 mM glucose + 10% dialyzed FBS, 0.19 µM
[29] = RPMI 5 mM glucose + 10% dialyzed FBS, 0.569 µM
[30] = RPMI 5 mM glucose + 10% dialyzed FBS, 1.71 µM
[31] = RPMI 5 mM glucose + 10% dialyzed FBS, 5.12 µM
[32] = RPMI 5 mM glucose + 10% dialyzed FBS, 15.4 µM
[33] = RPMI 5 mM glucose + 10% dialyzed FBS, 46.1 µM

Compound	cell viability [1]	cell viability [2]	cell viability [3]	cell viability [4]	cell viability [5]	cell viability [6]	cell viability [7]	cell viability [8]	cell viability [9]	cell viability [10]	cell viability [11]	cell viability [12]	cell viability [13]	cell viability [14]	cell viability [15]	cell viability [16]	cell viability [17]	cell viability [18]	cell viability [19]	cell viability [20]	cell viability [21]	cell viability [22]	cell viability [23]	cell viability [24]	cell viability [25]	cell viability [26]	cell viability [27]	cell viability [28]	cell viability [29]	cell viability [30]	cell viability [31]	cell viability [32]	cell viability [33]
CN1\N=C(N)/C2=C[N]([C@@H]3O[C@H](CO[P](O)(O)=O)[C@@H](O)[C@H]3O)C4=C2C1=NC=N4	77.9%	79.8%	42.7%	45.6%	38%	25.8%	13.2%	8.14%	4.15%	2.69%	2.9%	107%	109%	63.8%	65.2%	50.3%	35.3%	16.7%	7.7%	6.79%	3.71%	3.23%	88.7%	76%	40%	38.9%	21.1%	13.4%	8.31%	6.58%	4.28%	3.22%	2.94%
CC(O)(C#Cc1ccc2c(c1)N(c1nc(N)ncc1Cl)CC2)c1nccs1 (stereo unspecified)	97.3%	110%	113%	100%	125%	107%	109%	120%	111%	111%	72.4%	88.2%	87.3%	107%	62.8%	92.9%	97.7%	102%	101%	102%	84.5%	43.5%	117%	120%	119%	82.5%	107%	103%	117%	123%	114%	109%	59.2%
O=C(Nc1ncc(-c2cc(C(F)F)nn2-c2c(Cl)cccc2Cl)s1)C1CC1	101%	113%	102%	128%	121%	124%	118%	47%	20.5%	21.9%	8.41%	112%	106%	123%	131%	127%	137%	124%	31.5%	14.8%	14.8%	4.67%	115%	103%	99.9%	137%	127%	123%	130%	37.2%	17.8%	22%	5.55%
CNC[C@H](O)c1cccc(O)c1	66.9%	68.9%	98.8%	23.9%	86.8%	93.1%	98.1%	103%	103%	101%	108%	93%	55.3%	100%	15.4%	88.7%	96.7%	91.7%	78.1%	98.2%	104%	116%	89%	73%	89.5%	19.9%	111%	98.8%	101%	110%	110%	98.4%	111%
CCN(C(=O)C/1=C(O)/C2=C(C=CC=C2Cl)N(C)C1=O)C3=CC=CC=C3	79.9%	92.1%	99.3%	93.5%	84.6%	61.8%	62%	25.8%	9.79%	3.62%	3.31%	88.2%	90.7%	99.6%	97.6%	89.5%	43%	53.8%	14.4%	5.29%	3.41%	3.37%	93.1%	80.1%	85.4%	97.8%	80.2%	42.8%	49.6%	26.9%	6.32%	3.84%	3.31%
COCCOc1nc(-c2ccc(Cl)c(Cl)c2)n(-c2ccc(NC(=O)CCl)cc2)n1	85.5%	95.4%	87.5%	103%	104%	103%	94.2%	97.6%	83.6%	83.1%	84.6%	80%	106%	98.5%	89.9%	102%	85.7%	95.4%	88%	83.4%	79.1%	80.6%	92.2%	91.4%	96.4%	91%	95.1%	102%	94.2%	81.6%	80.2%	80.2%	85.1%
O=C1Nc2ccc(I)cc2/C1=C/c1cc(Br)c(O)c(Br)c1	98.4%	107%	103%	104%	101%	111%	107%	96.5%	105%	94.6%	76.8%	113%	113%	105%	112%	102%	115%	118%	110%	108%	88.4%	67.5%	115%	109%	115%	111%	121%	106%	121%	110%	104%	89%	62.5%
C[C@]12CC[C@@H]3c4ccc(O)cc4CC[C@H]3[C@@H]1C[C@@H](O)[C@@H]2O	105%	116%	108%	119%	113%	121%	113%	116%	113%	105%	91.3%	86.9%	83.6%	97.3%	95.6%	91.5%	89.3%	91.8%	79.7%	90.9%	82.6%	66.4%	127%	120%	114%	128%	129%	115%	126%	106%	112%	116%	92.4%
Cc1[nH]c(/C=C2\C(=O)Nc3ccccc32)c(C)c1CCC(=O)O	55%	85.6%	76.3%	81.6%	68.9%	84%	6.38%	32.1%	26.4%	26.5%	18.7%	71.9%	97.7%	108%	82.6%	82.4%	86.9%	6.07%	37.1%	39.1%	30.9%	18.3%	47.4%	82%	80.5%	76.1%	75.5%	83.3%	5.75%	26.5%	27.6%	22%	15.4%
CN[C@@H]1Cc2cccc3[nH]c(=O)n(c23)C1	108%	119%	105%	121%	98.8%	100%	110%	103%	104%	92.8%	95.4%																						
Nc1nnc(-c2cccc(Cl)c2Cl)c(N)n1	80.7%	80%	98.9%	21.9%	96.6%	92.1%	96.5%	103%	105%	115%	92.4%	71.7%	74.5%	85.2%	13.1%	97.6%	96.7%	104%	99.1%	99.9%	90.4%	89.7%	88.5%	88.1%	88.2%	16.1%	92.1%	97.5%	103%	101%	101%	107%	113%
CC[C@H](C)C(=O)O[C@H]1C[C@H](O)\C=C2\C=C/[C@H](C)[C@H](CC[C@@H](O)C[C@@H](O)CC(O)=O)[C@@H]12	118%	114%	116%	111%	125%	129%	121%	126%	103%	106%	92.9%	98.7%	110%	121%	124%	113%	126%	107%	118%	95.8%	108%	102%	123%	109%	121%	125%	129%	109%	121%	110%	119%	120%	86.2%
CC/1=C(/C(CC(=O)N1)C2=CC=C(C=C2)C(F)(F)F)C(=O)NC3=C(F)C=C4[NH]N=CC4=C3 (stereo unspecified)	81.9%	94.4%	92.3%	104%	91.8%	89.4%	95.9%	89.3%	114%	29.9%	26.5%	102%	101%	94.2%	94.7%	84.3%	92.8%	108%	92%	108%	31.9%	31.8%	97.9%	80.9%	102%	84%	96.8%	97.1%	100%	96.7%	109%	28.2%	32%
O=C(O)/C=C/c1ccc(O)c(O)c1	90.4%	102%	93.6%	122%	106%	93.6%	98.5%	105%	112%	78%	20.2%	108%	96.8%	90.3%	114%	110%	90.6%	109%	106%	98.5%	39.1%	5.15%	99.2%	117%	111%	112%	103%	114%	104%	91.7%	105%	50%	5.58%
Cn1c(=O)n(-c2ccc(C(C)(C)C#N)cc2)c2c3cc(-c4cnc5ccccc5c4)ccc3ncc21	94%	104%	96%	86.7%	82%	66.3%	50.5%	38.8%	28.3%	22.1%	22.3%	68%	56.2%	64.5%	64.3%	46%	33.6%	27.7%	15%	8.98%	9.61%	6.98%	98.6%	89%	89.8%	86.1%	65.7%	57.9%	51.4%	35%	24.2%	13.2%	14.4%
CCC(=O)N[C@H]1CC[C@H](C(=O)N(C)c2ccc(-c3nc4ccccc4o3)cc2)C1	75.9%	68%	99.7%	94.2%	99.8%	104%	101%	89%	110%	115%	96.4%	83.3%	51.8%	78.4%	89.5%	84.7%	101%	99.9%	82.2%	74.7%	74.2%	40%	91.9%	51.8%	83.5%	98.9%	98.4%	97%	96%	102%	94.7%	91%	45.3%
